This note sets out measurements from patent US20240165188A1, “Method for the treatment of microbial overgrowth, imbalance and infections” (TRINUTRA LTD., priority 2021, published 2024).

The test system of this assay is C. albicans (Robin) Berkhout (ATCC catalogue no. 96901), fluconazole resistant. Put plainly: Disc diffusion assay, inhibition of Candida albicans growth on agar. In kind it is cell-based. Conditions: C. albicans fluconazole-resistant strain; undiluted (100%); 24 hours; FIG. 2. Here is the method: A frozen stock of C. albicans (Robin) Berkhout (ATCC catalogue no. 96901) was thawed and incubated at 25 degrees Celsius for 72 hours in 200 YM medium. Following dilution 1:10, the culture was incubated for a further 24 hours. Following further dilution (1:10), the culture is grown for an additional 3 hours prior to use.
Antibiotic assay discs (Whatman discs, supplied by Sigma-Aldrich) were prepared in advance by means of saturating them with the test solutions and controls.
Agar plates were prepared and labelled as described in Example 1, above. The plates were then incubated at 25° C. and the area of inhibited fungal growth was measured and photographed after 24 hours.
• 1. Black seed oil 3% thymoquinone (TQ), 2% FFA. • 2. Black seed oil 3% thymoquinone (TQ), 10% FFA. • 3. Black seed oil 0.5% thymoquinone (TQ), 2% FFA. • 4. Black seed oil 0.5% thymoquinone (TQ), 10% FFA. • 5. Black seed oil 1.8% thymoquinone (TQ), 2% FFA formulation
• 6. Negative control (empty discs) • 7. Positive control I (0.05% zinc pyrithione). • 8. Positive control II (100 micrograms fluconazole)
All concentrations given above are w/w concentrations. The various black seed oil preparations were cold-pressed Nigella sativa oils obtained from NS Oils Ltd. (Kibbutz Sa'ad, Israel).
Each of the 5 test substances (at a concentration of 100%, i.e., undiluted) was assayed for antifungal activity, as described above.
In general terms: In agar diffusion tests the substance spreads into inoculated agar from a disc or well.

Turning to `OC(Cn1cncn1)(Cn1cncn1)c1ccc(F)cc1F` [fluconazole], the “size of the fungal inhibition zones (antifungal effect)” value is “lack of inhibitory activity”.
